Laboratory results reported in patent EP1431306A1, “A mechanism for hiv-1 entry into host cells and peptides inhibiting this mechanism” (priority 2002, dated 2004).

Legend:
HIV-1 Ba-L = assay: Infection of PHA-stimulated PBMCs with wild type HIV-1 Ba-L (early viral transcripts by PCR); type: cell-based; settings: 2 h at 37 °C, compared to 100 µM control peptide, SEQ ID NO.4 and 44: 100-50-10 µM, SEQ ID NO. 127: 1 µM-100-10 nM
Protocol: This example is illustrated in Fig. 12. […] 4 (CSFINT), 44 (RDKVKK) and the complete gp120 region SEQ ID NO.127 (CSFNITTEIRDKVKK), where the entry experiment is performed with two strains of HIV-1 on peripheral blood cells (PBMCs) derived from healthy donors. In particular, strain III B uses CXCR4 as a co-receptor (X4) and Ba-L uses CCR5 (R5).
In the graphs the percent inhibition of infection due to the peptides is shown, as compared to infection in the presence of 100 µM of a control peptide. PHA-stimulated PBMCs have been incubated with the peptides and immediately infected for 2 h at 37 °C. This incubation time is sufficient to evaluate virus entry, by detecting the presence of early viral transcripts into the cytoplasm of infected cells. The peptide concentrations are as follows: SEQ ID NO.4 and 44: 100-50-10 µM; SEQ ID NO. 127: 1 µM-100-10 nM. In Fig. 12A is represented the effect of the peptides on the basal infection of both viral strains, in Fig. 12B the effect of the peptides on the infection following incubation with rTAT 7 nM. A peptide-dependent inhibition of the basal infection by both HIV-1 strains is present already in the basal infection, reflecting the presence of TAT in the viral supernatants. […]
Infection with wild type HIV-1. […] Amplified DNA was analyzed by Southern blot hybridization with a ^32P-labeled probe, and quantified by densitometry. […]

TAT+/gp120-LV = assay: Entry of TAT+/gp120-LV into C8166 cells after co-culture with U937/PINCO or U937/TAT cells; type: cell-based, HIV-1
Source text: This example is illustrated in Fig. 10. […] Said vector, as described in Example II, allows the expression of TAT, so that TAT is already present, as detailed described before, in the vector preparation and its amount is enhanced after the co-culture with U937/TAT cells. […] In particular, peptides with SEQ ID NO. 40 (RDKKKK), 42 (RDKKKV), 45 (KDKKEK), 47 (RDKKQK), 49 (RDKQQK), 50 (RDKVQK) revert the entry of more than 15%.
This example is illustrated in Fig. 11. […] 4 (CSFINT) and 44 (RDKVKK), where the entry experiment is performed with TAT+/gp120-LV, following 4 h co-culture of C8166 cells with U937/TAT cells. These two peptides are the ones derived from the Phage Display screening, and is here evaluated their ability of inhibit vector entry at concentrations lower than 100 µM (the concentration used in all the examples previously described). To verify if the integrity of the peptides is crucial for their activity, we have incubated the cells with said peptides in the presence of different protease inhibitors (aprotinin or a mix made by aprotinin, leupeptin, bestatin, pepstatin-A, AEBSF [4-(2-Aminoethyl) Benzenesulfonyl Fluoride Hydrochloride] and E-64 [(N-(N-(L-3-Transcarboxirane-2-Carbonyl)-L-Leucyl)-Agmatine)]). […] This example illustrates a way by which the power of said peptides can be improved.
Co-cultures and incubations with rTAT. […]
Transduction with HIV-1-derived lentivirus. Vector stocks were prepared by transient co-transfection of 293T cells with the following combinations of plasmids: pRRL.hPGK.GFP.SIN-18 + pCMV.DR8.2 + pMD.G (Naldini et al. (1996), supra) (VSV-G-LV) or pEnvHXB (Huang et al., J. Virol. 72 (1998), 8952-8960) (TAT+/gp120-LV); pRRL.hPGK.GFP.SIN-18 + pCMV.DR8.74 + pRSV-Rev ((Dull et al. (1998), supra) + pEnvHXB (TAT^-/gp120-LV). Vector concentration was determined by HIV-1 p24 Core profile ELISA following the manufacturer's instructions. The entry experiments were conducted on 10^5 cells per well of a 48-well plate in the presence of 8 µg/ml polybrene. The number of GFP-positive cells was analysed by FACS.

| Substance | inhibition of the basal infection (HIV-1 Ba-L) [%] | blocking of virus entry (TAT+/gp120-LV) (TAT+/gp120-LV; concentration lower than 100 µM, no protease inhibitors, 4 h co-culture with U937/TAT cells) | concentration at which the inhibitory effect is still visible (TAT+/gp120-LV; in the presence of protease inhibitors (aprotinin or mix), 4 h co-culture with U937/TAT cells) [µM] | reversion of TAT+/gp120-LV entry (TAT+/gp120-LV; 100 µM of the peptides, 4 h co-culture of C8166 cells with U937/PINCO or U937/TAT cells (effect potentiated by co-culture with U937/TAT)) |
| --- | --- | --- | --- | --- |
| CSFINT [SEQ ID NO. 4] | ~70 | inefficient in blocking virus entry | 5 |  |
| RDKKQQ [SEQ ID NO. 47] |  |  |  | more than 15% |
